Laboratory results from ChEMBL document CHEMBL5727528, “Benzenesulfonamide compounds, method for synthesizing same, and use thereof in medicine and cosmetics” (2020).

Biological target: T1, Interstitial collagenase (Homo sapiens, UniProt P03956)
T1 sequence (P03956 whole entry): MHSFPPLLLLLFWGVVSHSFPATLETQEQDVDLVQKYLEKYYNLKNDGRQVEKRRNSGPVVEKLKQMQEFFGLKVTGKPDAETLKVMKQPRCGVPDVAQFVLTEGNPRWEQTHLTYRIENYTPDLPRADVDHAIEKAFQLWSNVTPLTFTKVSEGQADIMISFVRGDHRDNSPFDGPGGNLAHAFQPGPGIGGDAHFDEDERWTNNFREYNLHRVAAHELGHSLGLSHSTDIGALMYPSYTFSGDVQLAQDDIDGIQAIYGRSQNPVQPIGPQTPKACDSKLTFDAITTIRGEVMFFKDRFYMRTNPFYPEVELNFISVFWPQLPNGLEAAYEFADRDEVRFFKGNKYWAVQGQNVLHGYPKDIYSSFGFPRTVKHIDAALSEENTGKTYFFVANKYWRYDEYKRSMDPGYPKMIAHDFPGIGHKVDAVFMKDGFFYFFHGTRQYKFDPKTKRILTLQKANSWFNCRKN

## COCCN(C1(C(=O)NO)CN(C(=O)C(C)C)C1)S(=O)(=O)c1ccc(OCc2cc(C)nc3ccccc23)cc1
  IC50: > 10 µM
